Measurements from patent publication US20170129916A1, “NOVEL BETULINIC PROLINE IMIDAZOLE DERIVATIVES AS HIV INHIBITORS” (HETERO RESEARCH FOUNDATION, priority 2014, published 2017).

Assays:
[1] = system: HIV-1 strains, for e.g., 92HT599; experiment: Antiviral activity: p24 estimation in MT-2 cells infected with HIV-1; assay type: cell-based; conditions: Human immunodeficiency virus 1, MT2; MT-2 cells infected with HIV-1, p24, ~96 hours; read-out: Antiviral activity IC50 (nM) Efficacy IC50
Protocol: MT-2 cells were infected with required number of TCID50's of HIV-1 strains, for e.g., 92HT599. The infected cells were plated at the concentration of 30, 000 cells per well in a 96 well plate. Test compound was added to the 96 well plate with the final concentration of DMSO (vehicle—not more than 1%). The plates are then incubated in a CO2 incubator for ˜96 hours (˜4 days) for viral infection. At the end of incubation period an aliquot from each well was taken for p24 estimation. The quantitation of p24 is an estimated index for antiviral activity of the compound. Percent inhibition was calculated with reference to control values (vehicle controls).
p-24 estimation was carried out using Advance biosciences kit as per the procedure detailed by supplier.

[2] = Single dose oral pharmacokinetic study; assay type: in vivo; conditions: mouse, mice, 30 mg/kg, plasma; for AUC(0-t): read-out: Mice oral PK @30 mg/kg AUC 0-t; for Cmax: read-out: Mice oral PK @30 mg/kg Cmax
Protocol: The test item was administered through oral route to animals (rat/mice) at 30 mg/kg dose in a suitable vehicle at 10 ml/kg dose volume. Blood samples (˜50 uL at each time point) were collected from retro-orbital plexus using K3 EDTA as anticoagulant in eppend; orf tubes at defined time intervals under light ether anesthesia. The samples were centrifuged at 3500×g to separate plasma and stored at −80° C. until analysis.
Sample analysis: Test samples were analyzed using LC-MS-MS after developing fit-for-purpose method for each of test compound.

Row | Structure (SMILES) | IC50 [1] [nM] | AUC(0-t) [2] [µg·h/mL] | Cmax [2] [ng/mL]
1 | C=C(C)[C@@H]1CC[C@]2(C(=O)N3C[C@H](OCCOC)C[C@H]3c3nc(-c4cccnc4)c[nH]3)CC[C@]3(C)[C@H](CC[C@@H]4[C@@]5(C)CC[C@H](OC(=O)[C@H]6C[C@@H](C(=O)O)C6(C)C)C(C)(C)[C@@H]5CC[C@]43C)[C@@H]12 [Compound 10, (1R,3S)-3-((((1R,3aS,5aR,5bR,7aR,9S,11bR,11bR,13aR,13bR)-3a-((2S,4R)-4-(2-methoxyethoxy)-2-(4-(pyridin-3-yl)-1H-imidazol-2-yl)pyrrolidine-1-carbonyl)-5a,5b,8,8,11a-pentamethyl-1-(prop-1-en-2-yl)icosahydro-1H-cyclopenta[a]chrysen-9-yl)oxy)carbonyl)-2,2-dimethylcyclobutane-1-carboxylic acid] | 2.82 | 301 | 17900
2 | C=C(C)[C@@H]1CC[C@]2(C(=O)N3CCC[C@H]3c3nnc(-c4ccccc4)o3)CC[C@]3(C)[C@H](CC[C@@H]4[C@@]5(C)CC[C@H](OC(=O)[C@H]6C[C@@H](C(=O)O)C6(C)C)C(C)(C)[C@@H]5CC[C@]43C)[C@@H]12 [Compound 11, (1R,3S)-2,2-dimethyl-3-((((1R,3aS,5aR,5bR,7aR,9S,11aR,11bR,13aR,13bR)-5a,5b,8,8,11a-pentamethyl-3a-((S)-2-(5-phenyl-1,3,4-oxadiazol-2-yl)pyrrolidine-1-carbonyl)-1-(prop-1-en-2-yl)icosahydro-1H-cyclopenta[a]chrysen-9-yl)oxy)carbonyl)cyclobutane-1-carboxylic acid] | 5.96 | 403 | 16300
3 | C=C(C)[C@@H]1CC[C@]2(C(=O)N3CCC[C@H]3c3nc(C(C)(C)C)co3)CC[C@]3(C)[C@H](CC[C@@H]4[C@@]5(C)CC[C@H](OC(=O)[C@H]6C[C@@H](C(=O)O)C6(C)C)C(C)(C)[C@@H]5CC[C@]43C)[C@@H]12 [Compound 12, (1R,3S)-3-((((1R,3aS,5aR,5bR,7aR,9S,11aR,11bR,13aR,13bR)-3a-((S)-2-(4-(tert-butyl)oxazol-2-yl)pyrrolidine-1-carbonyl)-5a,5b,8,8,11a-pentamethyl-1-(prop-1-en-2-yl)icosahydro-1H-cyclopenta[a]chrysen-9-yl)oxy)carbonyl)-2,2-dimethylcyclobutane-1-carboxylic acid] | 139 | 395 | 13200
4 | C=C(C)[C@@H]1CC[C@]2(C(=O)N3CCC[C@H]3c3nc(C(C)C)c[nH]3)CC[C@]3(C)[C@H](CC[C@@H]4[C@@]5(C)CC[C@H](OC(=O)[C@H]6C[C@@H](C(=O)O)C6(C)C)C(C)(C)[C@@H]5CC[C@]43C)[C@@H]12 [Compound 14, (1R,3S)-3-((((1R,3aS,5aR,5bR,7aR,9S,11aR,11bR,13aR,13bR)-3a-((S)-2-(4-isopropyl-1H-imidazol-2-yl)pyrrolidine-1-carbonyl)-5a,5b,8,8,11a-pentamethyl-1-(prop-1-en-2-yl)icosahydro-1H-cyclopenta[a]chrysen-9-yl)oxy)carbonyl)-2,2-dimethylcyclobutane-1-carboxylic acid] | 0.138 | 437 | 19600
5 | C=C(C)[C@@H]1CC[C@]2(C(=O)N3CCC[C@H]3c3ncc(-c4ccccc4)o3)CC[C@]3(C)[C@H](CC[C@@H]4[C@@]5(C)CC[C@H](OC(=O)[C@H]6C[C@@H](C(=O)O)C6(C)C)C(C)(C)[C@@H]5CC[C@]43C)[C@@H]12 [Compound 15, (1R,3S)-2,2-dimethyl-3-((((1R,3aS,5aR,5bR,7aR,9S,11aR,11bR,13aR,13bR)-5a,5b,8,8,11a-pentamethyl-3a-((S)-2-(5-phenyloxazol-2-yl)pyrrolidine-1-carbonyl)-1-(prop-1-en-2-yl)icosahydro-1H-cyclopenta[a]chrysen-9-yl)oxy)carbonyl)cyclobutane-1-carboxylic acid] | 124 | 208 | 6510
6 | C=C(C)[C@@H]1CC[C@]2(C(=O)N3CCC[C@H]3c3ncc(C(C)(C)C)o3)CC[C@]3(C)[C@H](CC[C@@H]4[C@@]5(C)CC[C@H](OC(=O)[C@H]6C[C@@H](C(=O)O)C6(C)C)C(C)(C)[C@@H]5CC[C@]43C)[C@@H]12 [Compound 16, (1R,3S)-3-((((1R,3aS,5aR,5bR,7aR,9S,11aR,11bR,13aR,13bR)-3a-((S)-2-(5-(tert-butyl)oxazol-2-yl)pyrrolidine-1-carbonyl)-5a,5b,8,8,11a-pentamethyl-1-(prop-1-en-2-yl)icosahydro-1H-cyclopenta[a]chrysen-9-yl)oxy)carbonyl)-2,2-dimethylcyclobutane-1-carboxylic acid] | 103 | 229 | 7890
7 | C=C(C)[C@@H]1CC[C@]2(C(=O)N3CCC[C@H]3c3nc(-c4ccccc4)co3)CC[C@]3(C)[C@H](CC[C@@H]4[C@@]5(C)CC[C@H](OC(=O)[C@H]6C[C@@H](C(=O)O)C6(C)C)C(C)(C)[C@@H]5CC[C@]43C)[C@@H]12 [Compound 17, (1R,3S)-2,2-dimethyl-3-((((1R,3aS,5aR,5bR,7aR,9S,11aR,11bR,13aR,13bR)-5a,5b,8,8,11a-pentamethyl-3a-((S)-2-(4-phenyloxazol-2-yl)pyrrolidine-1-carbonyl)-1-(prop-1-en-2-yl)icosahydro-1H-cyclopenta[a]chrysen-9-yl)oxy)carbonyl)cyclobutane-1-carboxylic acid] | 58.6 | 219 | 7090
8 | C=C(C)[C@@H]1CC[C@]2(C(=O)N3CCC[C@H]3c3nc(C(C)(C)C)c[nH]3)CC[C@]3(C)[C@H](CC[C@@H]4[C@@]5(C)CC[C@H](OC(=O)[C@H]6C[C@@H](C(=O)O)C6(C)C)C(C)(C)[C@@H]5CC[C@]43C)[C@@H]12 [Compound 18, (1R,3S)-3-((((1R,3aS,5aR,5bR,7aR,9S,11aR,11bR,13aR,13bR)-3a-((S)-2-(4-(tert-butyl)-1H-imidazol-2-yl)pyrrolidine-1-carbonyl)-5a,5b,8,8,11a-pentamethyl-1-(prop-1-en-2-yl)icosahydro-1H-cyclopenta[a]chrysen-9-yl)oxy)carbonyl)-2,2-dimethylcyclobutane-1-carboxylic acid] | 35.8 | 409 | 16400
9 | C=C(C)[C@@H]1CC[C@]2(C(=O)N3CCC[C@H]3c3ncc(-c4ccccc4)[nH]3)CC[C@]3(C)[C@H](CC[C@@H]4[C@@]5(C)CC[C@H](OC(=O)C[C@H]6C[C@@H](C(=O)O)C6(C)C)C(C)(C)[C@@H]5CC[C@]43C)[C@@H]12 [Compound 21, (1R,3R)-2,2-dimethyl-3-(2-oxo-2-(((1R,3aS,5aR,5bR,7aR,9S,11aR,11bR,13aR,13bR)-5a,5b,8,8,11a-pentamethyl-3a-((S)-2-(5-phenyl-1H-imidazol-2-yl)pyrrolidine-1-carbonyl)-1-(prop-1-en-2-yl)icosahydro-1H-cyclopenta[a]chrysen-9-yl)oxy)ethyl)cyclo butane-1-carboxylic acid] | 1.29 | 269 | 13000
10 | C=C(C)[C@@H]1CC[C@]2(C(=O)N3CCC[C@H]3c3ncc(-c4ccccc4)[nH]3)CC[C@]3(C)[C@H](CC[C@@H]4[C@@]5(C)CC[C@H](OC(=O)c6ccc(OC(C)(C)C(=O)O)cc6)C(C)(C)[C@@H]5CC[C@]43C)[C@@H]12 [Compound 23, 2-methyl-2-(4-((((1R,3aS,5aR,5bR,7aR,9S,11aR,11bR,13aR,13bR)-5a,5b,8,8,11a-pentamethyl-3a-((S)-2-(5-phenyl-1H-imidazol-2-yl)pyrrolidine-1-carbonyl)-1-(prop-1-en-2-yl)icosahydro-1H-cyclopenta[a]chrysen-9-yl)oxy)carbonyl)phenoxy)propanoic acid] | 0.7 | 302 | 10600
11 | C=C(C)[C@@H]1CC[C@]2(C(=O)N3CCC[C@H]3c3nnc(-c4ccccc4)[nH]3)CC[C@]3(C)[C@H](CC[C@@H]4[C@@]5(C)CC[C@H](OC(=O)[C@H]6C[C@@H](C(=O)O)C6(C)C)C(C)(C)[C@@H]5CC[C@]43C)[C@@H]12 [Compound 24, (1R,3S)-2,2-dimethyl-3-((((1R,3aS,5aR,5bR,7aR,9S,11aR,11bR,13aR,13bR)-5a,5b,8,8,11a-pentamethyl-3a-((S)-2-(5-phenyl-4H-1,2,4-triazol-3-yl)pyrrolidine-1-carbonyl)-1-(prop-1-en-2-yl)icosahydro-1H-cyclopenta[a]chrysen-9-yl)oxy)carbonyl)cyclobutane-1-carboxylic acid] | 9.06 | 439 | 12200
